Experimental findings from US20230265116A1, “DEGRADATION OF (EGFR) BY CONJUGATION OF EGFR INHIBITORS WITH E3 LIGASE LIGAND AND METHODS OF USE” (BEIGENE, LTD., priority 2020, published 2023) are described below.

What all share (type): cell-based
The target of assay [1] is T1, EGFR WT (BaF3 WT cells) (Homo sapiens, UniProt P00533).
T1 construct: expressed in transfected cells; host or cells: BaF3
In words: EGFR degradation HTRF assay, BaF3 WT cells. Here is the method:
BaF3 WT(wild type), BaF3-LTC(L858R/T790M/C797S) and BaF3-DTC(Del19/T790M/C797S) cells are treated with compounds diluted in 0.2% DMSO cell culture medium and incubate for 16h, 37° C., 5% CO2, H1975-#36, H1975-#28, H1975-#23 and HCC827 cells are treated with compounds diluted in 0.2% DMSO cell culture medium on day 2, incubate for 16h, 37° C., 5% CO2.the final concentriation of compounds in all assay is start with 10 uM, 5-fold dilution, total 8 doses were included.
After 16h treatment, add HTRF lysis buffer to each well; seal the plate and incubate 1 hour at room temperature on a plate shaker; Once the cells are lysed, 16 μL of cell lysate are transferred to a PE 384-well HTRF detection plate; 4 μL of pre-mixed HTRF antibodies are added to each well; Cover the plate with a plate sealer, spin 1000 rpm for 1 min, Incubate overnight at room temperature; Read on BMG PheraStar with HTRF protocol (337 nm-665 nm-620 nm).
The inhibition (degradation) percentage of the compound was calculated by the following equation: Inhibition percentage of Compound=100-100×(Signal-low control)/(High control-low control), wherein signal=each test compound group
High control=Cell group with added DMSO and without compound, indicating microplate readings without EGFR degradation;
Dmax is the maximum percentage of inhibition (degradation).
The IC50 (DC50) value of a compound can be obtained by fitting the following equation
Y=Bottom+(TOP−Bottom)/(1+((IC50/X)^hillslope))
Wherein, X and Y are known values, and IC50, Hillslope, Top and Bottom are the parameters obtained by fitting with software. Y is the inhibition percentage (calculated from the equation), X is the concentration of the compound; IC50 is the concentration of the compound when the 50% inhibition is reached. The smaller the IC50 value is, the stronger the inhibitory ability of the compound is. Vice versa, the higher the IC50 value is, the weaker the inhibitory ability of the compound is; Hillslope represents the slope of the fitted curve, generally around 1*; Bottom represents the minimum value of the curve obtained by data fitting, which is generally 0%±20%; Top represents the maximum value of the curve obtained by data fitting, which is generally 100%±20%. The experimental data were fitted by calculating and analyzing with Dotmatics data analysis software.
In general terms: Time-resolved FRET reads energy transfer from a long-lived donor to a nearby acceptor.

The test system of assay [2] is EGFR Del19/T790M/C797S (BaF3-DTC cells). In words: EGFR degradation HTRF assay, BaF3-DTC cells. The following applies: for DTC Dmax (%): maximum percentage of degradation. Summed up:
(§1)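 Cells treated 16 h at 37 °C, 5% CO2 in medium with 0.2% DMSO; top final concentration 10 uM, 5-fold dilution, 8 doses. Lysates read by HTRF (665/620 nm); degradation % versus DMSO high control, DC50 from four-parameter fit, Dmax as maximal degradation.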

The target in assay [3] is T2, EGFR L858R/T790M/C797S (BaF3-LTC cells) (Homo sapiens, UniProt P00533, C797S/L858R/T790M).
T2 construct: expressed in transfected cells; host or cells: BaF3
In words: EGFR degradation HTRF assay, BaF3-LTC cells. The procedure, abridged:
as §1

Assay [4] addresses T3, EGFR L858R/T790M (H1975-clone #36, homozygous) (Homo sapiens, UniProt P00533, L858R/T790M).
T3 construct: designed to specifically target WT EGFR but preserve the L858R/T790M copy; host or cells: H1975-clone #36
In words: EGFR degradation HTRF assay, H1975-clone #36 cells. The following applies: H1975 #36, 16h treatment; for Dmax: NCI-H1975, maximum percentage of degradation. The procedure, abridged:
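H1975 clone #36, made homozygous for L858R/T790M EGFR by knockout of the WT allele, treated 16 h at 37 °C with compound in 0.2% DMSO medium. Eight doses from 10 uM, 5-fold dilutions. EGFR measured by HTRF in lysates. DC50 and Dmax fitted against DMSO controls.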

Assay [5] addresses T4, EGFR (HCC827 cells) (Homo sapiens, UniProt P00533, DEL746-750).
T4 construct: endogenous in cells; host or cells: HCC827
In words: EGFR degradation HTRF assay, HCC827 cells. The following applies: HCC827, 16h treatment; for Dmax: maximum percentage of degradation. Summed up: as §1

Assay [6] concerns EGFR Del19/T790M/C797S (H1975-clone #28). In words: EGFR degradation HTRF assay, H1975-clone #28 DTC cells. As to conditions: H1975 # 28 DTC cells; for DC50: EGFR degradation, IC50 (DC50) from curve fit, read-out: DC50(nM) H1975 # 28 DTC; for Dmax (%) H1975 # 28 DTC: maximum percentage of inhibition (degradation). Summed up: (§2)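 H1975 clones stably overexpressing mutant EGFR, with endogenous EGFR knocked out by sgRNA and homozygosity confirmed by sequencing, were treated 16h at 37° C. with compounds in 0.2% DMSO (top final 10 uM, 5-fold, 8 doses). Lysates were read by HTRF (665/620 nm); DC50 and Dmax came from fitting % degradation versus DMSO control.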

Assay [7] has as its system EGFR Del19/C797S (H1975-clone #23). In words: EGFR degradation HTRF assay, H1975-clone #23 DC cells. The following applies: 16h treatment; for H1975 #23 DC Dmax (%): maximum percentage of degradation; for DC50: H1975 #23 DC, read-out: H1975 #23 DC DC50. Summed up: as §2
Assay [8] concerns the target T5, EGFR L858R/C797S (BaF3 LC cells) (Homo sapiens, UniProt P00533, C797S/L858R).
T5 construct: expressed in transfected cells; host or cells: BaF3
In words: EGFR degradation HTRF assay, BaF3 LC cells. As to conditions: BaF3 LC, 16h treatment; for DC50: read-out: BaF3 LC DC50.

[9] abbreviates: BaF3 WT, 16h treatment, maximum percentage of degradation, read-out: WT Dmax (%).
Setting [10] is: 16h treatment, read-out: DTC DC50.
Where [11] appears, read: BaF3-LTC, 16h treatment, maximum percentage of degradation, read-out: LTC Dmax (%).
Where [12] appears, read: BaF3-LTC, 16h treatment, read-out: LTC DC50.
[13] abbreviates: BaF3-LTC cells, EGFR degradation, IC50 (DC50) from curve fit, read-out: DC50(nM) BaF3-LTC.

Structures are written as SMILES. Like-named read-outs stand apart in the source and are kept apart here.

T4 sequence (P00533 with tags, fused parts or gaps DEL746-750): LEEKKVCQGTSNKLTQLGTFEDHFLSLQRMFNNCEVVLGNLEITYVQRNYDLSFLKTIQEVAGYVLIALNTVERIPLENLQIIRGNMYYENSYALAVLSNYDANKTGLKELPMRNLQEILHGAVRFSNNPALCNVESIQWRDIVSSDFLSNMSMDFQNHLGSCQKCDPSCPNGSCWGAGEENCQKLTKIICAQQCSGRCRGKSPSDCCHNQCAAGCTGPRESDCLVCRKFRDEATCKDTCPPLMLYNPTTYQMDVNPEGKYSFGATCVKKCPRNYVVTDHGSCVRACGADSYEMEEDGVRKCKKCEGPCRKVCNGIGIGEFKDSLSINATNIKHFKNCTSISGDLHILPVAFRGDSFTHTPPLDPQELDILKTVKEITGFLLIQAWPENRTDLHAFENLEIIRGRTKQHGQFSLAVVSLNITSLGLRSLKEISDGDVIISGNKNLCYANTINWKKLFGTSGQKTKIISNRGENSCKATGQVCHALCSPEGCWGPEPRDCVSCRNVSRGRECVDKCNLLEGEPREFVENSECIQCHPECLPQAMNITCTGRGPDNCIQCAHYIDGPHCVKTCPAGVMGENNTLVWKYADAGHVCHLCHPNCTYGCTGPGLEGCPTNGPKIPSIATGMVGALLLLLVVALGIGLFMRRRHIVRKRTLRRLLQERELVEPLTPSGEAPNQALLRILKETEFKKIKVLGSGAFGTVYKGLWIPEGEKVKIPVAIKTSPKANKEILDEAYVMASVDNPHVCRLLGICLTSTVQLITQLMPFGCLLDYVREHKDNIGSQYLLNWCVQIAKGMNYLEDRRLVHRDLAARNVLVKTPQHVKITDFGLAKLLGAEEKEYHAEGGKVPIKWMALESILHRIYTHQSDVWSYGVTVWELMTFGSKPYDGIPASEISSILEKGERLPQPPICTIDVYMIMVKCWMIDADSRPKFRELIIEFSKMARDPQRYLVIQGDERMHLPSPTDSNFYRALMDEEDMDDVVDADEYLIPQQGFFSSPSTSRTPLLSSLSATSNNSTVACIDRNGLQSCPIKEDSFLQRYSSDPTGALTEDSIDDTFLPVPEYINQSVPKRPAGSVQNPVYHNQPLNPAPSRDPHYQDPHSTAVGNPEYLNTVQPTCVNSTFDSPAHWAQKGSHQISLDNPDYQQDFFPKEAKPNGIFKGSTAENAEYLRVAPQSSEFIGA
T1 sequence (P00533 25-1210): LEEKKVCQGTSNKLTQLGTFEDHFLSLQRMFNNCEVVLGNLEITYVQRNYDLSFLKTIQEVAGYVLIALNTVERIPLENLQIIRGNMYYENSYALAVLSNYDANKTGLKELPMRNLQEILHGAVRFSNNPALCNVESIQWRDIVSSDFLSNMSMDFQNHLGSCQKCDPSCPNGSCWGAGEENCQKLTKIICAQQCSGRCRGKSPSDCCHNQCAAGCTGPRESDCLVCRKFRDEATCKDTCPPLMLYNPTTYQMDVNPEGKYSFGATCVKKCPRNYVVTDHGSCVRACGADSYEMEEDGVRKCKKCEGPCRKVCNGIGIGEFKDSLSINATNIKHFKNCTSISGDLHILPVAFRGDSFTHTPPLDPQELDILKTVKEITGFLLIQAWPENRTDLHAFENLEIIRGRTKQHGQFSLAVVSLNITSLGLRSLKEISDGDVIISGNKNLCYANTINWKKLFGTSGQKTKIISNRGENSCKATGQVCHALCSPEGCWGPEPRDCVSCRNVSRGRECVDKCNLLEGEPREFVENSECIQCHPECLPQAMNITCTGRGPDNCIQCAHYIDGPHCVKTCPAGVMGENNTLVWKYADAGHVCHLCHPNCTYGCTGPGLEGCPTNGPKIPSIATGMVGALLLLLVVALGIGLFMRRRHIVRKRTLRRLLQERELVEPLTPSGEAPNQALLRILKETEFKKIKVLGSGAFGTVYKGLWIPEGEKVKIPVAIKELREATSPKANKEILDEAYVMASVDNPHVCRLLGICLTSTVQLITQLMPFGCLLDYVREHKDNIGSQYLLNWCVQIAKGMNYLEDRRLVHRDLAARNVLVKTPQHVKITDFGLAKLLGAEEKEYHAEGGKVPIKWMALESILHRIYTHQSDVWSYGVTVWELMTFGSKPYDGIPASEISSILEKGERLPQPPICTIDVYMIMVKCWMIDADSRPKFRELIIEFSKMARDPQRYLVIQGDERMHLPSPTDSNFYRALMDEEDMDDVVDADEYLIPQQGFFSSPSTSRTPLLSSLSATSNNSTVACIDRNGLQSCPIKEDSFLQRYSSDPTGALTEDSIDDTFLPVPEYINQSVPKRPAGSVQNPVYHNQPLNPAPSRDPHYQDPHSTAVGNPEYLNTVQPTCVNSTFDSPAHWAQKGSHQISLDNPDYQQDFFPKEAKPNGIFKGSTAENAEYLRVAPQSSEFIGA
T3 sequence (P00533 25-1210 T790M/L858R): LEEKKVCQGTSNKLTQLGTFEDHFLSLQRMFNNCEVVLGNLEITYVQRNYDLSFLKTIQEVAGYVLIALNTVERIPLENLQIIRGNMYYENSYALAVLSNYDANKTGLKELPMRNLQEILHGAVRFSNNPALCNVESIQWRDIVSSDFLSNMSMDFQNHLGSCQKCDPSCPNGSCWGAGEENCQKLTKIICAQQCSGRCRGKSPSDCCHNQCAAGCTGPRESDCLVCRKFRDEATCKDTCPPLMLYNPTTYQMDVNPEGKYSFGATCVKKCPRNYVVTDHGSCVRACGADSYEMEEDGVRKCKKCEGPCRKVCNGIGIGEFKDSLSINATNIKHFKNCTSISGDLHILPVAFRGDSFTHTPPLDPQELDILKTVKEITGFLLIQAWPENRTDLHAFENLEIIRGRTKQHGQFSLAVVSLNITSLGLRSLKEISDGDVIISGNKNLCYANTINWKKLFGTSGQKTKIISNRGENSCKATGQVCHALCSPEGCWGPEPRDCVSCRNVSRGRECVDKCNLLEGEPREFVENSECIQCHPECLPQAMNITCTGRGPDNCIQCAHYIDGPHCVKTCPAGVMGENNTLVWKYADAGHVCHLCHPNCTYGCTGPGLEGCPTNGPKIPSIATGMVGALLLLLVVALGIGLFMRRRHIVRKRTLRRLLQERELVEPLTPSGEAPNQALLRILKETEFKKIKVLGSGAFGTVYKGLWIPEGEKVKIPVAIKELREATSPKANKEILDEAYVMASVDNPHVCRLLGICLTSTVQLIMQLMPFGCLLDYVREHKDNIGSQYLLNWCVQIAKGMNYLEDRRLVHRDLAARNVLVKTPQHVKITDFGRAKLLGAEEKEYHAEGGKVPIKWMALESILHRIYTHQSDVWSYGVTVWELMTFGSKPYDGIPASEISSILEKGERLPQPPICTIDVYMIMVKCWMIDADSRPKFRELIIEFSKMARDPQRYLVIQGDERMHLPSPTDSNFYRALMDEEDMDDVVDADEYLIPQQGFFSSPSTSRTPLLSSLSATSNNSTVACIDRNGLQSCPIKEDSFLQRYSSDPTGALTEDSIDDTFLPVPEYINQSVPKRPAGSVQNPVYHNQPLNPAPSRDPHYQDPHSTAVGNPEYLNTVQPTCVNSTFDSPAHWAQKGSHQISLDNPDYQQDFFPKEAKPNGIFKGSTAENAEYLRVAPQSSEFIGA
T2 sequence (P00533 25-1210 T790M/C797S/L858R): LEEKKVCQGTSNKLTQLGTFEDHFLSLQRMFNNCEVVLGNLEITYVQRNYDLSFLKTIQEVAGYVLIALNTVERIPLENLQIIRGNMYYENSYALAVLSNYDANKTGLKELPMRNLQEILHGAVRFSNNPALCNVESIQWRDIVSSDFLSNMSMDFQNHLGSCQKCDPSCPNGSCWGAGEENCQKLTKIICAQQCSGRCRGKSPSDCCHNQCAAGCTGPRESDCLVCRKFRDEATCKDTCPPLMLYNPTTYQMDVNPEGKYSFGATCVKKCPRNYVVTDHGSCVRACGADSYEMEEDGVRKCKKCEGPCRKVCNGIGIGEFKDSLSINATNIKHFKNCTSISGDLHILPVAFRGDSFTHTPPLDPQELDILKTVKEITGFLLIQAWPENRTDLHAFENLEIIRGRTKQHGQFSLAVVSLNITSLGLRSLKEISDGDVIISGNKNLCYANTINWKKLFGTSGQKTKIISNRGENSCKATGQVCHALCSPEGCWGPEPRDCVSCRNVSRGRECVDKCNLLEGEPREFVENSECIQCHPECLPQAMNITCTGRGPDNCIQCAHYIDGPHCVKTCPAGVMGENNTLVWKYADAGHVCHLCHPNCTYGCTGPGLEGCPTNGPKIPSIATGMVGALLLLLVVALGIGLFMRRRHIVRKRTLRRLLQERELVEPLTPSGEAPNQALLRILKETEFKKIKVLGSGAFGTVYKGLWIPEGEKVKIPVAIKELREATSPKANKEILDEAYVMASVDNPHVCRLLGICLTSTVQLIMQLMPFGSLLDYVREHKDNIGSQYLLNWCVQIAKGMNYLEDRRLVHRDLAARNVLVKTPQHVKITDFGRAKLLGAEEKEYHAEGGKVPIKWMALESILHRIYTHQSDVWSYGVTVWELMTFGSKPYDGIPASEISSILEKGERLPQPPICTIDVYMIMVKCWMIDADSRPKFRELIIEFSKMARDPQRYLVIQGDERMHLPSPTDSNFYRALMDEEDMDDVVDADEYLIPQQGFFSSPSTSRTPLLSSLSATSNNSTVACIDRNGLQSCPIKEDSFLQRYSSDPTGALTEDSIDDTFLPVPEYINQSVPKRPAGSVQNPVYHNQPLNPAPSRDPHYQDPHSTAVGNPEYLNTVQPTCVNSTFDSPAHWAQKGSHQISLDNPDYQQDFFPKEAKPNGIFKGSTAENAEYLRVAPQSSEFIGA

As usually defined, the DC50 is the midpoint of the concentration-degradation curve. Broadly, the Dmax is the largest share of the target that was removed. As to `CCc1cc(Nc2ncc(Br)c(Nc3ccc4nccnc4c3P(C)(C)=O)n2)c(OC)cc1N1CCC(N2CCN(CCc3ccc(C4CCC(=O)NC4=O)c(F)c3)CC2)CC1` (stereo not drawn) [Example 5, 3-(4-(2-(4-(1-(4-((5-bromo-4-((5-(dimethylphosphoryl)quinoxalin-6-yl)amino)pyrimidin-2-yl)amino)-2-ethyl-5-methoxyphenyl)piperidin-4-yl)piperazin-1-yl)ethyl)-2-fluorophenyl)piperidine-2,6-dione], the DC50 in assay [1] (BaF3 WT, 16h treatment) was more than 10000 nM; in assay [2] (setting [10]) it was 4.96 nM; in assay [3] (setting [12]) it was 13.1 nM; in assay [4], 4.66 nM; in assay [5], 2.56 nM. The Dmax was found to be 47.9% in assay [1] (setting [9]), 90.4% in assay [3] (setting [11]), 84.1% in assay [4] and 83.9% in assay [5]. The “DTC Dmax (%)” value in assay [2] (16h treatment) is reported as 96.75%.
For the compound `CCc1cc(Nc2ncc(Br)c(Nc3ccc4nccnc4c3P(C)(C)=O)n2)c(OC)cc1N1CCC(N2CCN(CCC3CCN(c4ccc5c(c4)CN(C4CCC(=O)NC4=O)C5=O)CC3)CC2)CC1` (stereo not drawn) [Example 70, 3-(5-(4-(2-(4-(1-(4-((5-bromo-4-((5-(dimethylphosphoryl)quinoxalin-6-yl)amino)pyrimidin-2-yl)amino)-2-ethyl-5-methoxyphenyl)piperidin-4-yl)piperazin-1-yl)ethyl)piperidin-1-yl)-1-oxoisoindolin-2-yl)piperidine-2,6-dione], the DC50 in assay [1] (BaF3 WT, 16h treatment) is more than 10000 nM; in assay [2] (setting [10]), 8.49 nM; in assay [3] (setting [12]), 12.2 nM. Moreover, the Dmax in assay [1] (setting [9]) turned out to be 26.1%; in assay [3] (setting [11]) it was 95%. In addition, in assay [2] (16h treatment), the “DTC Dmax (%)” value was found to be 91.36%.
`CCc1cc(Nc2ncc(Br)c(Nc3ccc4nccnc4c3P(C)(C)=O)n2)c(OC)cc1N1CCC(N2CCN(CCN(C)c3ccc4c(c3)CN(C3CCC(=O)NC3=O)C4=O)CC2)CC1` (stereo not drawn) [Example 71, 3-(5-((2-(4-(1-(4-((5-bromo-4-((5-(dimethylphosphoryl)quinoxalin-6-yl)amino)pyrimidin-2-yl)amino)-2-ethyl-5-methoxyphenyl)piperidin-4-yl)piperazin-1-yl)ethyl)(methyl)amino)-1-oxoisoindolin-2-yl)piperidine-2,6-dione]: the Dmax in assay [1] (BaF3, read-out: WT Dmax (%)) was 31.4%; in assay [3] (setting [11]), 80%. The DC50 in assay [1] (BaF3 WT, 16h treatment) was more than 10000 nM; in assay [2] (read-out: DTC DC50, 16h treatment), 7.52 nM; in assay [3] (setting [12]) it was 11.5 nM. The “DTC Dmax (%)” value in assay [2] (16h treatment) came out at 81.19%.
Consider `CCc1cc(Nc2ncc(Br)c(Nc3ccc4nccnc4c3P(C)(C)=O)n2)c(OC)cc1N1CCC(N2CCN(CCc3ccc(C4CCC(=O)NC4=O)cc3)CC2)CC1` (stereo not drawn) [Example 1, 3-(4-(2-(4-(1-(4-((5-bromo-4-((5-(dimethylphosphoryl)quinoxalin-6-yl)amino)pyrimidin-2-yl)amino)-2-ethyl-5-methoxyphenyl)piperidin-4-yl)piperazin-1-yl)ethyl)phenyl)piperidine-2,6-dione], for which the DC50 in assay [1] (BaF3 WT, 16h treatment) was more than 10000 nM; in assay [4], 7.22 nM; in assay [5], 3.6 nM. The Dmax was found to be 49.2% in assay [1] (setting [9]), 89.3% in assay [3] (setting [11]), 60.8% in assay [4] and 86.9% in assay [5].
As for `CCc1cc(Nc2ncc(Br)c(Nc3ccc4nccnc4c3P(C)(C)=O)n2)c(OC)cc1N1CCC(N2CCN(C(=O)C3CCN(CC4CCN(c5ccc6c(c5)C(=O)N(C5CCC(=O)NC5=O)C6=O)CC4)CC3)CC2)CC1` (stereo not drawn) [Example 63, 5-(4-((4-(4-(1-(4-((5-bromo-4-((5-(dimethylphosphoryl)quinoxalin-6-yl)amino)pyrimidin-2-yl)amino)-2-ethyl-5-methoxyphenyl)piperidin-4-yl)piperazine-1-carbonyl)piperidin-1-yl)methyl)piperidin-1-yl)-2-(2,6-dioxopiperidin-3-yl)isoindoline-1,3-dione], the DC50 in assay [1] (BaF3 WT, 16h treatment) is more than 10000 nM; in assay [2] (setting [10]), 281 nM; in assay [3] (setting [12]) it was more than 2000 nM; in assay [5], 1.74 nM. The results for the Dmax in assay [1] (setting [9]), in assay [3] (setting [11]) and in assay [5] were 3.27%, 38.5% and 86.3%, respectively. Also, the “DTC Dmax (%)” value in assay [2] (16h treatment) was 52.42%.
Take `CCOc1cc(N2CCC(N3CCN(CCc4cccc5c4n(C4CC4)c(=O)n5C4CCC(=O)NC4=O)CC3)CC2)c(CC)cc1Nc1ncc(Br)c(Nc2ccc3nc(CC)ccc3c2P(C)(C)=O)n1` (stereo not drawn) [Example 468, 3-(4-(2-(4-(1-(4-((5-bromo-4-((5-(dimethylphosphoryl)-2-ethylquinolin-6-yl)amino)pyrimidin-2-yl)amino)-5-ethoxy-2-ethylphenyl)piperidin-4-yl)piperazin-1-yl)ethyl)-3-cyclopropyl-2-oxo-2,3-dihydro-1H-benzo[d]imidazol-1-yl)piperidine-2,6-dione]: the DC50 in assay [3] (setting [13]) turned out to be 12.2 nM; in assay [6], 0.998 nM; in assay [7], 11.9 nM; in assay [8], 66.1 nM. Further, the Dmax in assay [3] (BaF3-LTC cells, maximum percentage of inhibition (degradation), read-out: Dmax (%) BaF3-LTC) stood at 90.2%; in assay [8] (maximum percentage of degradation, read-out: BaF3 LC Dmax (%)), 82.8%. Further, the “Dmax (%) H1975 # 28 DTC” value in assay [6] is 74.46%. Further, in assay [7], the “H1975 #23 DC Dmax (%)” value is 79.65%.
On to `CCc1ncc2c(P(C)(C)=O)c(Nc3nc(Nc4cc(CC)c(N5CCC(N6CCN(CCc7cc(F)c([C@H]8CCC(=O)NC8=O)c(F)c7)CC6)CC5)cc4OC)ncc3Br)ccc2n1` [Example 589, (R)-3-(4-(2-(4-(1-(4-((5-bromo-4-((5-(dimethylphosphoryl)-2-ethylquinazolin-6-yl)amino)pyrimidin-2-yl)amino)-2-ethyl-5-methoxyphenyl)piperidin-4-yl)piperazin-1-yl)ethyl)-2,6-difluorophenyl)piperidine-2,6-dione], for which the half-maximal degradation concentration (DC50) in assay [3] (setting [13]) was 4.34 nM; in assay [6], 0.844 nM; in assay [7] it was 2.2 nM; in assay [8], 20.3 nM. Further, the “Dmax (%) H1975 # 28 DTC” value in assay [6] was found to be 86.23%. For the same compound, the “H1975 #23 DC Dmax (%)” value in assay [7] stood at 84.51%.
